Data set [1] concerns Human A375 malignant melanoma cells. Description: A375 melanoma colony formation. It is filed as cell-based. Conditions: 10 days. How it is done: Human A375 malignant melanoma cells were plated at a colony-forming density (200 cells per well on six well plates). Cells were grown in DMEM medium (GIBCO, Invitrogen Corp., Carlsbad, Calif.) supplemented with charcoal-stripped fetal bovine serum (HyClone, Logan, Utah) and an antibiotic-antimycotic solution (Sigma, St. Louis, Mo.) at 37° C. in an atmosphere of 95% air and 5% CO2. […] Cells were grown for 10 days and colonies were fixed with 4% paraformaldehyde in PBS at 4° C. The fixed colonies were washed with distilled water, stained with 0.1% crystalline blue for 30 min and rinsed with distilled water to remove excess of the dye. Plates were photographed and colony formations were examined by eye and under the microscope.

Data set [2] concerns LNCaP prostate cancer cells. Description: cell cycle analysis, propidium iodide. It is filed as cell-based, human. Conditions: 24 h.
In data set [3] the test system is melanoma (A375, B16-F1) and prostate cancer cells (DU145, PC-3, LNCaP, PPC-1). Description: SRB assay, range over melanoma and prostate cancer cell lines. The data set is classed as cell-based. Conditions: range over the examined cell lines; read-out: IC50 over melanoma and prostate cancer cell lines. Here is the method: (§1) For melanoma assays, one human melanoma cell line (A375) and one mouse melanoma cell line (B16-F1) were used. […] Fibroblast cells were used as a control to determine the selectivity of these compounds against melanoma. Human dermal fibroblast cells were purchased from Cascade Biologics, Inc., Portland, Oreg., USA. […] Cells were exposed to a wide range of concentrations for 48 h in round-bottomed 96-well plates. […] After cells were air-dried overnight and stained with SRB solution, total proteins were measured at 560 nm with a plate reader.

Data set [4] can be described thus: pharmacokinetic study in ICR mice. Conditions: mouse, IV 10 mg/kg.
The test system of data set [5] is NCI-60 human tumor cell lines. Description: NCI-60 screening assay.
Data set [6] in a line: pharmacokinetic study in Sprague-Dawley rats. The note with it: rat.
The test system of another data set is A375. As to the kind of experiment: SRB antiproliferation assay, A375 melanoma. The data set is classed as cell-based, human. The note with it: Homo sapiens, A-375, SRB; read-out: IC50 A375 (converted). From the text: (§2) For melanoma assays, one human melanoma cell line (A375) and one mouse melanoma cell line (B16-F1) were used. […] Fibroblast cells were used as a control to determine the selectivity of these compounds against melanoma. Human dermal fibroblast cells were purchased from Cascade Biologics, Inc., Portland, Oreg., USA.

The next data set has as its system LNCaP. Description: SRB antiproliferation assay, LNCaP prostate cancer. Conditions: read-out: IC50 LNCaP; SRB.
A further data set relates to DU 145. As to the kind of experiment: SRB antiproliferation assay, DU 145 prostate cancer. The note with it: read-out: IC50 DU 145; SRB.
In a further data set the test system is melanoma cells. As to the kind of experiment: SRB assay, melanoma cells. It is filed as cell-based. The note with it: range over melanoma cell lines; read-out: IC50 values against melanoma cells. Here is the method: as §1
A further data set deals with PC-3. As to the kind of experiment: SRB antiproliferation assay, PC-3 prostate cancer.
Data set [7] deals with prostate cancer cells (LNCaP, PC-3, DU-145, PPC-1). Description: SRB assay, prostate cancer cells. Conditions: range over prostate cancer cell lines, read-out: IC50 values against prostate cancer cells. It is filed as cell-based, human.
In a further data set the test system is B16-F1. Description: SRB antiproliferation assay, B16-F1 melanoma. The data set is classed as cell-based, mouse. Conditions: Mus musculus, B16-F1, SRB; read-out: IC50 B16-F1 (converted).
Text: as §2

The next data set relates to PPC-1. Description: SRB antiproliferation assay, PPC-1 prostate cancer. Conditions: read-out: IC50 PPC-1; SRB.
Another data set concerns B16-F1 mouse melanoma. Description: B16-F1 melanoma tumor in C57BL/6 mice. It is filed as in vivo. Conditions: B16-F1 in C57BL/6 mice, 6 mg/kg daily i.p. Here is the method: B16 tumors will grow in a fully immunocompetent host, in which case the tumor progression may more accurately replicate melanoma growth. Logarithmic growth phase B16-F1 (3.8×10^5) cells were injected s.c. into the right dorsal flank of C57BL/6 mice. When tumors were palpable, mice were randomized into a control and a treatment group (n=9). […] Body weights were also recorded. Tumor volume was expressed as cubic millimeters. […] There was no significant body weight loss (<5%), and all mice had normal activities during the experiments.

Another data set relates to WM164. As to the kind of experiment: SRB antiproliferation assay, WM-164 melanoma. Conditions: Homo sapiens. It is filed as cell-based.
Another data set deals with OVCAR-8. Description: SRB antiproliferation assay, OVCAR-8 ovarian cancer. Conditions: Homo sapiens, OVCAR-8, 96 h, read-out: IC50 in the SRB, OVCAR8.
A further data set relates to MES-SA. As to the kind of experiment: SRB antiproliferation assay, MES-SA uterine cancer. Conditions: Homo sapiens, 96 h, read-out: IC50 in the SRB, MES-SA.
A further data set relates to A549. Description: SRB antiproliferation assay, A549 lung cancer. Conditions: Homo sapiens, A549, 96 h, read-out: IC50 in the SRB, A549.
The next data set concerns NCI/ADR-RES. Description: SRB antiproliferation assay, P-gp over-expressing NCI/ADR-RES. The note with it: Homo sapiens, NCI/ADR-RES, 96 h, read-out: IC50 in the SRB, NCI/ADR-RES.
The subject of the next data set is MES-SA/DX5. As to the kind of experiment: SRB antiproliferation assay, doxorubicin-resistant MES-SA/DX5. The note with it: Homo sapiens, MES-SA/Dx5, 96 h, read-out: IC50 in the SRB, MES-SA/DX5, uterine MDR, 96 h, N = 3.
In the next data set the test system is MCF7. As to the kind of experiment: SRB antiproliferation assay, MCF7 breast cancer. Conditions: Homo sapiens, MCF7, 96 h, read-out: IC50 in the SRB, MCF7.
A further data set deals with C26. As to the kind of experiment: SRB antiproliferation assay, C26 colon cancer. Conditions: C26, 96 h, read-out: IC50 in the SRB, C26.
Data set [8] can be described thus: metabolic stability in human liver microsomes. Conditions: Phase I conditions, FIG. 18.
For another data set, the system named is T47D. As to the kind of experiment: cell growth inhibition SRB, T47D. The data set is classed as cell-based. Conditions: Homo sapiens, N = 3, Table 14. From the text:
(§3) Cell growth inhibition studies. […] Cells were stained with sulphorhodamine B (SRB) solution.

The next data set relates to HUVEC. Description: endothelial cell growth inhibition SRB, HUVEC. It is filed as cell-based, human. Conditions: Homo sapiens, HUVEC; SRB, N = 3, growth factor-supplemented endothelial cells.
The test system of data set [9] is confluent HUVEC monolayers. As to the kind of experiment: endothelial monolayer permeability assay. It is filed as cell-based, human. Conditions: leakage of FITC-dextran (MW 40,000) after 1, 2 and 4 h. From the text: Endothelial monolayer permeability assay.
The next data set relates to PC3. Description: cell growth inhibition SRB, PC3 (vascular study). Conditions: Homo sapiens, PC-3, N = 3, Table 14. It is filed as cell-based.
Text: as §3

Data set [10] has as its system colchicine-binding site on tubulin. Description: competitive mass binding assay, colchicine-tubulin binding. Conditions: tubulin 1 mg/mL.
Setting [11] is: 5 mg/kg injected, 20 min-48 h, 5 mg/kg.

Molecules are shown by their SMILES. Where “and” joins values, the source holds several entries; their conditions need not be identical. Equal entries are not always repeated. Where two headings read alike, the source gives them in different places.

As to `COc1cc(C(=O)c2csc(-c3ccccc3)n2)cc(OC)c1OC` [8f, (2-Phenyl-thiazol-4-yl)-(3,4,5-trimethoxy-phenyl)-methanone], the melanoma colony formation entry is “significantly inhibit” in data set [1] (A375, 0.03 μM); “completely inhibited” in data set [1] (A375, 0.3 and 3 μM). In data set [2] (10 nM), the “effect on cell cycle distribution” value was “no effect”. Besides, the “proportion of cells in G2/M phase” value in data set [2] (50 nM, about 10% in untreated cells) came out at 57%; in data set [2] (200 nM) it was 63%; in [2] (500 nM) it was 49%. The IC50 in data set [3] is 21 to 71 nM. In data set [4], this compound gave a MousePK_IV10mgk_CI of 130 mL/min/kg. Besides, in data set [4], the MousePK_IV10mgk_V stood at 4.9 Lkg. For the same compound, in [5] (Homo sapiens, read-out: NCI-60 GI50 values), the GI50 was below 10 nM. Also, in data set [5] (against most cell lines), the “NCI-60 TGI values” is “micromolar range”. The “RatPK IV CI at 2.5 mpk” value in data set [6] (IV 2.5 mpk) is 7.7 (2.5 mpk) mL/min/kg. Besides, in data set [6] (IV 2.5 mpk), the “RatPK IV V at 2.5 mpk” value was 4.9 (2.5 mpk) L/kg.
For the compound `COc1cc(C(=O)c2csc(-c3ccccc3F)n2)cc(OC)c1OC` [8l, [2-(2-Fluorophenyl)-thiazol-4-yl]-(3,4,5-trimethoxyphenyl)-methanone], the melting point lay in the range of 90 to 102 °C. Also, in the data set with A375, the IC50 is 30 nM. Moreover, the IC50 in the data set with LNCaP was 53 nM. Also, in the data set on DU 145, the IC50 is 114 nM. Moreover, in the data set on melanoma cells, the IC50 fell in the range of 27 to 30 nM. Besides, the IC50 with PC-3 (read-out: IC50 PC-3, SRB) is 82 nM. Besides, in data set [7] (Homo sapiens), the IC50 fell in the range of 52 to 114 nM. Moreover, the IC50 with B16-F1 was 27 nM. Further, in the data set with PPC-1, the IC50 was 52 nM.
Turning to `COc1cc(C(=O)c2csc(-c3cccc(F)c3)n2)cc(OC)c1OC` [8m, [2-(3-Fluorophenyl)-thiazol-4-yl](3,4,5-trimethoxyphenyl)-methanone], the IC50 is 304 nM in the data set with A375; 11 nM in the data set with LNCaP; 35 nM in the data set with DU 145; 287 to 304 nM in the data set on melanoma cells; 24 nM in the data set with PC-3 (read-out: IC50 PC-3, SRB); 23 to 46 nM in data set [7] (Homo sapiens). The IC50 in the data set on B16-F1 was 287 nM; in the data set on PPC-1 it was 21 nM.
On to `COc1cc(C(=O)c2csc(-c3ccc(F)cc3)n2)cc(OC)c1OC` [8n, [2-(4-Fluorophenyl)-thiazol-4-yl]-(3,4,5-trimethoxyphenyl)-methanone], for which the melanoma colony formation result in data set [1] (A375, 0.03 μM) was “significantly inhibit”; in data set [1] (A375, 0.3 and 3 μM), “completely inhibited”. Besides, the IC50 in the data set with melanoma cells fell in the range of 33 to 43 nM; in data set [7] (Homo sapiens), 6 to 13 nM; in data set [7], 6 to 12 nM; in [3], 6 to 43 nM. The same compound returned a body weight loss in the data set on B16-F1 mouse melanoma below 5%. Further, the tumor growth inhibition entry in the data set on B16-F1 mouse melanoma is reported as “significant tumor growth inhibition”.
With `COc1cc(C(=O)c2c[nH]c(-c3cn(S(=O)(=O)c4ccccc4)c4ccccc34)n2)cc(OC)c1OC` [17yab, (2-(1-(Phenylsulfonyl)-1H-indol-3-yl)-1H-imidazol-4-yl)(3,4,5-trimethoxyphenyl)methanone], the IC50 was 481 nM in the data set on A375; 234 nM with LNCaP; 592 nM in the data set on DU 145; 468 nM in the data set on WM164; 148 nM in the data set with PC-3 (read-out: IC50 PC-3, SRB); 539 nM in the data set on B16-F1. In addition, in the data set with PPC-1, the IC50 amounted to 209 nM.
For `COc1cc(C(=O)c2csc(-c3ccc4c(ccn4C)c3)n2)cc(OC)c1OC` [31a], the IC50 in the data set on OVCAR-8 worked out at 16 nM; in the data set with MES-SA, 18 nM; with A549, 21 nM; in the data set with NCI/ADR-RES, 14 nM; with PC-3 (read-out: IC50 in the SRB, PC3, 96 h treatment, N = 3, Table 15), 5 nM; with MES-SA/DX5 it was 18 nM. The IC50 came to 22 nM with MCF7 and 16 nM with C26. Besides, in [8], the “stability in human liver microsomes, in words” value is on record as “acceptable stability”.
In the case of `COc1ccc(/C=C\c2cc(OC)c(OC)c(OC)c2)cc1O` [CA4, reference compound], the values for the IC50 with T47D, with HUVEC and in the data set with PC3 were 6 nM, 1.2 nM and 3.2 nM, respectively. The “permeability of endothelial cell monolayer” value in data set [9] is on record as “increased permeability”.
As for `COc1cc(C(=O)c2csc(-c3ccc4[nH]ccc4c3)n2)cc(OC)c1OC` [compound 31], the IC50 in the data set on OVCAR-8 was 11 nM; with A375, 25 nM; in the data set on MES-SA, 6 nM; with A549 it was 9 nM; in the data set on NCI/ADR-RES it was 5 nM; with PC-3 (read-out: IC50 PC-3, SRB), 7.6 nM. Also, the IC50 in the data set on MES-SA/DX5 is 8 nM; in the data set on MCF7 it was 11 nM; in the data set with B16-F1 it was 8.3 nM; in the data set on C26, 5 nM. In addition, the “stability in human liver microsomes, in words” value in [8] is “acceptable stability”. Further, in [6] (setting [11]), the area under the curve (AUC) is 210 µg·min/mL and 249 µg·min/mL. Besides, in data set [6] (setting [11]), the CI was 23 mL/min/kg and 18 mL/min/kg.
As for `CC[C@]1(O)C[C@@H]2CN(CCc3c([nH]c4ccccc34)[C@@](C(=O)OC)(c3cc4c(cc3OC)N(C)[C@H]3[C@@](O)(C(=O)OC)[C@H](OC(C)=O)[C@]5(CC)C=CCN6CC[C@]43[C@@H]65)C2)C1` [vinblastine, reference compound], the “competition with colchicine for tubulin binding” value in data set [10] is on record as “did not inhibit the colchicine-tubulin binding”.

The values above are taken from patent US10865196B2, “Compounds for treatment of cancer” (University of Tennessee Research Foundation, priority 2008, dated 2020).
